“And” between values parts separate entries of the source, which are not always exact repeats. Equal entries are not always repeated.

The values that follow come from patent US9913905B2 (EAGLE BIOLOGICS, INC., priority 2013, dated 2018).

The test system of one series is biosimilar AVASTIN®. Nature of the series: Viscosity of concentrated aqueous solutions of biosimilar AVASTIN® (mVROC microfluidic viscometer). The class given is physicochemical.
Series [1] has as its system respiratory syncytial virus. The conditions noted are these: two Phase III clinical trials in the pediatric population; cited from earlier work.
The test system of a further series is biosimilar RITUXAN®. As to the kind of experiment: Viscosity of concentrated aqueous solutions of biosimilar RITUXAN® (mVROC microfluidic viscometer). Type of series: physicochemical. To be noted: organophosphate 0.10M. The method, then: (unless otherwise indicated).
A commercially-obtained biosimilar AVASTIN® (100-400 mg) containing pharmaceutical excipients (Polysorbate 20, phosphate and citrate buffers, mannitol, and NaCl) was purified. […] Samples buffer exchanged into 2 mM PB were first aliquoted. […] For samples buffer exchanged into 20 mM PB (PB control samples), the collected protein solution was freeze-dried. […] Using the same protocol, formulations containing biosimilar ERBITUX®, TYSABRI®, HERCEPTIN®, and […]® were also prepared.

The test system of a further series is biosimilar ERBITUX®. As to the kind of experiment: Viscosity of concentrated aqueous solutions of biosimilar ERBITUX® (mVROC microfluidic viscometer). The class given is physicochemical. The conditions noted are these: Biosimilar ERBITUX® 215 mg/mL; excipient 0.25M.
The subject of a further series is HERCEPTIN®. As to the kind of experiment: Viscosity of concentrated aqueous solutions of HERCEPTIN® (mVROC microfluidic viscometer). Type of series: physicochemical. The conditions noted are these: organophosphate 0.25M.
For the next series, the system named is REMICADE®. Nature of the series: Viscosity of concentrated aqueous solutions of […]® (mVROC microfluidic viscometer). Type of series: physicochemical.
For the next series, the system named is TYSABRI®. As to the kind of experiment: Viscosity of concentrated aqueous solutions of TYSABRI® (mVROC microfluidic viscometer). The class given is physicochemical. To be noted: organophosphate 0.25M.
In series [2] the test system is therapeutically relevant mAbs. The conditions noted are these: in some cases; Table 3.
Setting [3] is: [Excipient] 0.10 M, [mAb] 217 mg/mL, 25° C., pH 7.

In turn, `Nc1ccn([C@H]2C[C@H](O)[C@@H](COP(=O)(O)OP(=O)(O)OP(=O)(O)O)O2)c(=O)n1` [dCTP-Tris, deoxycytidine triphosphate] gave a Viscosity in the series on biosimilar AVASTIN® (setting [3]) of 325 ± 13 cP.

As to “nicotinamide adenine dinucleotide phosphate [NADP]”, the Viscosity in the series on biosimilar AVASTIN® ([Excipient] 0.10 M, [mAb] 204 mg/mL, 25° C., pH 7) is 165 ± 23 cP; in the series on biosimilar AVASTIN® ([Excipient] 0.25 M, [mAb] 186 mg/mL, 25° C., pH 7), 242 ± 16 cP.

Consider “palivizumab: humanized mAb directed against an epitope in the A antigenic site of the F protein of respiratory syncytial virus”, for which the “Reduction of the risk of hospitalization due to respiratory syncytial virus infection” value in series [1] was 55% and 45%.

As to `C=C(OP(=O)(O)O)C(=O)O` [Phosphoenol pyruvate], in the series with biosimilar AVASTIN® ([Excipient] 0.25 M, [mAb] 193 mg/mL, 25° C., pH 7), the Viscosity was >>200 cP.

With `Cc1ncc(C[n+]2csc(CCOP(=O)(O)OP(=O)(O)O)c2C)c(N)n1.[Cl-]` [TPP, thiamine pyrophosphate], the “Viscosity reducing ability among the organophosphates examined” value with biosimilar AVASTIN® (Table 1, biosimilar AVASTIN®) was “greatest viscosity reducing ability”. Moreover, the Viscosity in the series on biosimilar AVASTIN® (Table 2, [Excipient] 0.10 M, [biosimilar AVASTIN®] 176 mg/mL) is recorded as 21.1 ± 1.7 cP; in the series on biosimilar AVASTIN® (Table 2, [Excipient] 0.30 M, [biosimilar AVASTIN®] 191 mg/mL) it was 129 ± 5 cP; in the series with biosimilar AVASTIN® (Table 3, Biosimilar AVASTIN® 216 mg/mL, organophosphate 0.1M) it was 47.6 ± 2.7 cP; with biosimilar AVASTIN® ([Excipient] 0.10 M, [mAb] 201 mg/mL, 25° C., pH 7), 34.6 ± 2.1 cP; in the series on biosimilar AVASTIN® ([Excipient] 0.10 M, [mAb] 216 mg/mL, 25° C., pH 7), 47.6 ± 2.7 cP; in the series with biosimilar AVASTIN® ([Excipient] 0.25 M, [mAb] 210 mg/mL, 25° C., pH 7), 44.5 ± 0.9 cP. Besides, the Viscosity in the series on biosimilar RITUXAN® (Biosimilar RITUXAN® 193 mg/mL) was determined as 102 ± 16 cP; with biosimilar ERBITUX®, 55.6 ± 4.8 cP; with HERCEPTIN® (HERCEPTIN® 240 mg/mL), 156 ± 3 cP; in the series with REMICADE® (REMICADE® 158 mg/mL, organophosphate 0.10M) it was 100 ± 9 cP; in the series with REMICADE® (REMICADE® 232 mg/mL, organophosphate 0.25M), 1773 ± 304 cP.

As for `Nc1ncnc2c1ncn2[C@@H]1O[C@H](COP(=O)(O)OP(=O)([O-])OP(=O)([O-])O)[C@@H](O)[C@H]1O.[Na+].[Na+]` [ATP, adenosine triphosphate], the Viscosity in the series on biosimilar AVASTIN® ([Excipient] 0.10 M, [mAb] 209 mg/mL, 25° C., pH 7) is 52.3 ± 2.3 cP; in the series with biosimilar AVASTIN® (setting [3]), 80.7 ± 7.1 cP.

In the case of `Nc1nc2c(ncn2[C@@H]2O[C@H](COP(=O)(O)OP(=O)(O)OP(=O)(O)O)[C@@H](O)[C@H]2O)c(=O)[nH]1` [GTP], in the series with biosimilar AVASTIN® ([Excipient] 0.10 M, [mAb] 205 mg/mL, 25° C., pH 7), the Viscosity was found to be 150 ± 12 cP.

On to `Nc1ncnc2c1ncn2[C@@H]1O[C@@H]2COP(=O)(O)OC2C1O` (some centres unmarked) [cAMP-Tris, cyclic adenosine monophosphate], for which the Viscosity in the series on biosimilar AVASTIN® (Table 2, [Excipient] 0.40 M, [biosimilar AVASTIN®] 176 mg/mL) was 39.2 ± 4.3 cP; in the series on biosimilar AVASTIN® (Table 2, [Excipient] 0.50 M, [biosimilar AVASTIN®] 178 mg/mL), 66.1 ± 0.4 cP; in the series with biosimilar AVASTIN® (Table 3, Biosimilar AVASTIN® 216 mg/mL, organophosphate 0.25M) it was 85.7 ± 10.7 cP; with biosimilar AVASTIN® ([Excipient] 0.25 M, [mAb] 209 mg/mL, 25° C., pH 7), 62.1 ± 1.8 cP; in the series with biosimilar AVASTIN® ([Excipient] 0.25 M, [mAb] 216 mg/mL, 25° C., pH 7), 85.7 ± 10.7 cP; in the series with TYSABRI® (TYSABRI® 227 mg/mL) it was 80.1 ± 2.4 cP. The Viscosity came to 62.6 ± 1.7 cP in the series with biosimilar RITUXAN® (Biosimilar RITUXAN® 199 mg/mL) and 79.5 ± 2.7 cP in the series with HERCEPTIN® (HERCEPTIN® 235 mg/mL). Further, the Reduction of viscosity result in series [2] was “up to 9 fold”.

`Cc1cn([C@H]2CC(O)[C@@H](COP(=O)(O)OP(=O)(O)OP(=O)(O)O)O2)c(=O)[nH]c1=O` (some centres unmarked) [dTTP-Tris, deoxythymidine triphosphate] yielded a Viscosity with biosimilar AVASTIN® ([Excipient] 0.10 M, [mAb] 221 mg/mL, 25° C., pH 7) of 207 ± 6 cP.

In the case of `CN(CC(=O)O)C(=N)NP(=O)(O)O` [Phosphocreatine], the Viscosity with biosimilar AVASTIN® ([Excipient] 0.25 M, [mAb] 231 mg/mL, 25° C., pH 7) is >>200 cP.

`Nc1nc2c(ncn2[C@H]2CC(O)[C@@H](COP(=O)(O)OP(=O)(O)OP(=O)(O)O)O2)c(=O)[nH]1` (some centres unmarked) [dGTP-Tris, deoxyguanosine triphosphate] returned a Viscosity in the series with biosimilar AVASTIN® (setting [3]) of 238 ± 31 cP.

Turning to `Nc1ncnc2c1ncn2[C@@H]1O[C@H](COP(=O)(O)OP(=O)(O)O)[C@@H](O)[C@H]1O` [ADP, Adenosine Diphosphate], in the series on biosimilar AVASTIN® ([Excipient] 0.10 M, [mAb] 215 mg/mL, 25° C., pH 7), the Viscosity worked out at 76.6 ± 2.2 cP.

`Cc1ncc(C[n+]2csc(CCOP(=O)(O)OP(=O)([O-])O)c2C)c(N)n1.Cc1nccn1CCCN` [TPP-APMI, thiamine pyrophosphate 1-(3-aminopropyl)-2-methyl-1H-imidazole]: the Viscosity with biosimilar AVASTIN® (Table 2, [Excipient] 0.10 M, [biosimilar AVASTIN®] 191 mg/mL) worked out at 23.2 ± 0.9 cP; with biosimilar AVASTIN® (Table 2, [Excipient] 0.20 M, [biosimilar AVASTIN®] 180 mg/mL), 20.9 ± 0.4 cP; in the series on biosimilar AVASTIN® (Table 2, [Excipient] 0.50 M, [biosimilar AVASTIN®] 180 mg/mL), 111 ± 1 cP; in the series with TYSABRI® (TYSABRI® 238 mg/mL), 76.3 ± 3.2 cP; in the series with HERCEPTIN® (HERCEPTIN® 221 mg/mL), 60.5 ± 0.3 cP; in the series on REMICADE® (REMICADE® 223 mg/mL, organophosphate 0.25M), 316 ± 11 cP.

For `Nc1ncnc2c1ncn2[C@H]1C[C@H](O)[C@@H](COP(=O)(O)OP(=O)(O)OP(=O)(O)O)O1` [dATP-Tris, deoxyadenosine triphosphate], the Viscosity with biosimilar AVASTIN® ([Excipient] 0.10 M, [mAb] 196 mg/mL, 25° C., pH 7) was found to be 127 ± 0.2 cP.

The compound `Nc1ncnc2c1ncn2[C@@H]1O[C@H](COP(=O)(O)O)[C@@H](O)[C@H]1O` [AMP, Adenosine Monophosphate] gave a Viscosity in the series with biosimilar AVASTIN® ([Excipient] 0.10 M, [mAb] 206 mg/mL, 25° C., pH 7) of 63.2 ± 1.6 cP.
